Patent US12180192B2, “Modulators of THR-β and methods of use thereof” (ALIGOS THERAPEUTICS, INC., priority 2019, dated 2024)
Like-named read-outs stand apart in the source and are kept apart here.

Experiments:
Format in all cases: cell-based
THR beta = molecular target: T1, THR beta (Homo sapiens, UniProt P10828); assay: HEK293T THR beta/RXR luciferase reporter assay (Assay 2); conditions: for Emax: HEK-293T, read-out: Activity category Assay 2 THRβ (Emax); for EC50: THR-beta, HEK293T reporter assay, read-out: Activity category Assay 2 (EC50, THR-beta agonist)
T1 construct: expressed in transfected cells; host or cells: HEK293T (ATCC CRL-3216)
T1 sequence (P10828 1-461): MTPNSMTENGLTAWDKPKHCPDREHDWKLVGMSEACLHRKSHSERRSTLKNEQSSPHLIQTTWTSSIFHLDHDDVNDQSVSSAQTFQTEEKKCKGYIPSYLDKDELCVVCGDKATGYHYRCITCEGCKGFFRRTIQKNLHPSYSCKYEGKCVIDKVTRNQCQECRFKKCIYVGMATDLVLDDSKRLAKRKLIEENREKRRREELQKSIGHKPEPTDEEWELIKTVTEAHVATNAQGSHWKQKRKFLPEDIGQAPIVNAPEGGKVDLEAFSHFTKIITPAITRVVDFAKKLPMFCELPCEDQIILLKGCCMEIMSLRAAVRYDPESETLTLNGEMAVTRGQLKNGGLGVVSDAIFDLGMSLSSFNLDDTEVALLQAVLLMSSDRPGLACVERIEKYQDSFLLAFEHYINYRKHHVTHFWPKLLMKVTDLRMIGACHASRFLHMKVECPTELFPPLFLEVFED
T1 sequence (P19793 1-462 partner): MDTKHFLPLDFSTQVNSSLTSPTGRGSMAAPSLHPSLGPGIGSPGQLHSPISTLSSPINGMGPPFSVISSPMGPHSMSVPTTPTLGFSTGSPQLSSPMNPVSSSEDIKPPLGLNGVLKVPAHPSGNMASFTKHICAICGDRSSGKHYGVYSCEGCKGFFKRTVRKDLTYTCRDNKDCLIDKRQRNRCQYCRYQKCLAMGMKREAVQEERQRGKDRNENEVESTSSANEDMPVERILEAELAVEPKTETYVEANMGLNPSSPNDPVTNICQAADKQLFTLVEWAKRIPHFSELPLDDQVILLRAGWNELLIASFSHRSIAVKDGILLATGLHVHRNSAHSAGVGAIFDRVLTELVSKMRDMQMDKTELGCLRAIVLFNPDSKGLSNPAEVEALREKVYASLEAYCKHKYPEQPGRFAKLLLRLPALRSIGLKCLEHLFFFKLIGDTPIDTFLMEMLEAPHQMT
Method in brief: (§1)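 HEK293T cells transiently transfected with TRE-luciferase reporter, RXR, and THR alpha or THR beta plasmid; ten five-fold compound dilutions from DMSO added for 18-24 h. One-Glo luminescence read; percent agonism normalized between negative and positive controls.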

THR alpha = molecular target: T2, THR alpha (Homo sapiens, UniProt P10827); assay: HEK293T THR alpha/RXR luciferase reporter assay (Assay 2); conditions: Assay 2; for Emax: HEK-293T, read-out: Activity category Assay 2 THRα (Emax); for EC50: Table 4, THR-alpha, read-out: Activity category Assay 2 (EC50, THR-alpha agonist activity)
T2 construct: expressed in transfected cells; host or cells: HEK293T (ATCC CRL-3216)
T2 sequence (P10827 1-410 isoform P10827-2): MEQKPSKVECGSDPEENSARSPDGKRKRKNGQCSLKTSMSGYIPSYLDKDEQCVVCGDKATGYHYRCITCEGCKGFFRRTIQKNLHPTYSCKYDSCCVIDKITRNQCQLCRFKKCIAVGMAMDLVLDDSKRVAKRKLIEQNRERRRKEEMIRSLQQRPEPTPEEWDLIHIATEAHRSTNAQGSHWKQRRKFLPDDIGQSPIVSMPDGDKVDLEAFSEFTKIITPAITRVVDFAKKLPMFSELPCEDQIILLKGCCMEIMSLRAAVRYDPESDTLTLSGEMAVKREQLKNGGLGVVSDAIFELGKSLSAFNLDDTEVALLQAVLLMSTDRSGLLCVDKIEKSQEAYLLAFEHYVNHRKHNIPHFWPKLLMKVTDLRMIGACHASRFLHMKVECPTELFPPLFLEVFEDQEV
T2 sequence (P19793 1-462 partner): T1 sequence (P19793 1-462 partner)
Method in brief: as §1

[1] = test system: CPT1A gene expression in Huh-7 cells; assay: Huh-7 differential gene expression, CPT1A RT-qPCR (Assay 3); conditions: Table 6, Huh-7 cells, CPT1A, 24 hr treatment; for EC50: read-out: Activity category Assay 3 EC50; for Emax: read-out: Activity category Assay 3 Emax
Method in brief: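 Huh-7 cells in DMEM with 10% resin-stripped (TH-depleted) FBS were treated 24 hr with compounds at 0.1% DMSO, in biological duplicates. CPT1A mRNA was measured by TaqMan RT-qPCR against ACTB and TFG and quantified by 2-ΔΔCt. EC50 and Emax came from four-parameter logistic fits with no top constraint.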

| Structure (SMILES) | Emax (THR beta; Table 5, Assay 2, THRβ) [%] | EC50 (THR beta) [nM] | Emax (THR alpha; Table 5, THRα) [%] | EC50 (THR alpha) [nM] | EC50 ([1]; Homo sapiens, Huh-7, 24 h) [nM] | Emax ([1]; Homo sapiens, Huh-7, 24 h) [%] | Activity category Assay 3 Emax [1] | Activity category Assay 2 THRβ (Emax) (THR beta; Table 5, Assay 2, THRβ) | Activity category Assay 2 THRα (Emax) (THR alpha; Table 5, THRα) | EC50 [1] [nM] |
| --- | --- | --- | --- | --- | --- | --- | --- | --- | --- | --- |
| CC(C)c1c[nH]c2ccc(Oc3c(Cl)cc(-n4nc(C#N)c(=O)[nH]c4=O)cc3Cl)cc12 [Compound 1, 2-[3,5-dichloro-4-[(3-isopropyl-1H-indol-5-yl)oxy]-phenyl]-3,5-dioxo-4H-1,2,4-tri-azine-6-carbonitrile] | > 75 | 50 to 250 | > 75 | 250 to 1000 | 100 to 1000 | > 75 |  |  |  |  |
| CC(C)c1n[nH]c2nnc(Oc3c(Cl)cc(-n4nc(C#N)c(=O)[nH]c4=O)cc3Cl)cc12 [Compound 75A, 2-(3,5-Dichloro-4-((3-isopropyl-1H-pyrazolo[3,4-c]pyridazin-5-yl)oxy)phenyl)-3,5-dioxo-2,3,4,5-tetrahydro-1,2,4-triazine-6-carbonitrile] | 50 to 75 |  | < 50 | > 10000 | > 100 | > 75 |  |  |  |  |
| Nc1nn(-c2cc(Cl)c(Oc3cc(C4Cc5ccccc54)c(=O)[nH]n3)c(Cl)c2)c(=O)[nH]c1=O (stereo not shown) [Compound 158] | 50 to 75 | 50 to 250 | < 50 | 1000 to 10000 | > 100 | < 50 |  |  |  |  |
| CC(C)Nc1n[nH]c2ccc(Oc3c(Cl)cc(-n4nc(C#N)c(=O)[nH]c4=O)cc3Cl)cc12 [Compound 145, 2-(3,5-dichloro-4-((3-(isopropylamino)-1H-indazol-5-yl)oxy)phenyl)-3,5-dioxo-2,3,4,5-tetrahydro-1,2,4-triazine-6-carbonitrile] | 50 to 75 | 1000 to 10000 | 50 to 75 | 1000 to 10000 | 100 to 1000 | > 75 |  |  |  |  |
| CC(c1ccccc1)c1cc(Oc2c(Cl)cc(-n3nc(N)c(=O)[nH]c3=O)cc2Cl)n[nH]c1=O (single isomer, unassigned) [Compound 164, 6-Amino-2-(3,5-dichloro-4-((6-oxo-5-(1-phenylethyl)-1,6-dihydropyridazin-3-yl)oxy)phenyl)-1,2,4-triazine-3,5(2H,4H)-dione] | > 75 |  | 50 to 75 | 250 to 1000 | < 100 | 50 to 75 |  |  |  |  |
| CC(c1cc(Oc2c(Cl)cc(-n3nc(N)c(=O)[nH]c3=O)cc2Cl)n[nH]c1=O)C1CC(F)(F)C1 (single isomer, unassigned) [Compound 61-A, 6-amino-2-[3,5-dichloro-4-([5-[1-(3,3-difluorocyclobutyl)ethyl]-6-oxo-1H-pyridazin-3-yl]oxy)phenyl]-4H-1,2,4-tri-azine-3,5-dione] | > 75 | < 50 | 50 to 75 | 50 to 250 | < 100 |  | B (Emax≥50%, and <75%) |  |  |  |
| CC(C)c1c[nH]c2ccc(Oc3c(Cl)cc(-n4nc(C#N)c(=O)[nH]c4=O)cc3Cl)nc12 [Compound 18] | > 75 | 1000 to 10000 | 50 to 75 | 1000 to 10000 | > 100 | > 75 |  |  |  |  |
| Nc1nn(-c2cc(Cl)c(Oc3cc(-c4ccc5c(c4)CCCO5)c(=O)[nH]n3)c(Cl)c2)c(=O)[nH]c1=O [Compound 114] | < 50 | 250 to 1000 | < 50 | > 10000 | 100 to 1000 | 50 to 75 |  |  |  |  |
| Nc1nn(-c2cc(Cl)c(Oc3cc(C4CC5(CC5)C4)c(=O)[nH]n3)c(Cl)c2)c(=O)[nH]c1=O [Compound 93] | 50 to 75 | 250 to 1000 | < 50 | 1000 to 10000 | < 100 | 50 to 75 |  |  |  |  |
| CC(c1cc(Oc2c(Cl)cc(-n3nc(N)c(=O)[nH]c3=O)cc2Cl)n[nH]c1=O)C1CC(F)(F)C1 (single isomer, unassigned) [Compound 61-B, 6-amino-2-[3,5-dichloro-4-([5-[1-(3,3-difluorocyclobutyl)ethyl]-6-oxo-1H-pyridazin-3-yl]oxy)phenyl]-4H-1,2,4-tri-azine-3,5-dione] |  | 250 to 1000 |  | 250 to 1000 |  |  | A (Emax≥75%) | A (Emax≥75%) | C (Emax<50%) | > 100 |
